Assay results reported in patent US11147816B2, “Composition for inducing differentiation and protection of neural stem cells and method for inducing neuro-regeneration using the same composition” (GENUV Inc., priority 2016, dated 2021).

Experiments:
[1] = system: mouse embryonic neural stem cells; test: qRT-PCR of relative mRNA expression of neuronal markers in mouse embryonic NSC (Examples 4-1, 4-2, 6); type: cell-based; details: 1 nM
Description: Isopropanol (Ducsan, GyunggiDo, Korea, cat#. 67-63-0) was added and mixed for RNA isolation, then centrifuged again to remove the supernatant and obtain the pellet. The RNA pellet was resuspended in 75% ethanol (Ducsan, cat#. 64-17-15), centrifuged, and the supernatant removed. The pellet was then resuspended in sterilized triple distilled water to obtain the mRNA, incubated for 10 minutes at 55° C., and stored at −80° C.
Sterilized triple distilled water, […] oligo dT, and 1 mM dNTP were added to the RNA and incubated for 5 minutes at 65° C. This was followed by the addition of 5X First-strand buffer, 10 mM DTT, and M-MLV reverse transcriptase and incubated at 42° C. for 1 hour, then at 72° C. for 15 minutes, and at 4° C. for 30 minutes. The synthesized cDNA was stored at −20° C.
The term relative mRNA expression level signifies that in order to normalize each group's total RNA level, the mRNA expression level of each differentiation marker is divided by the expression level of GAPDH whose expression level is fairly constant across cells, and then the values of each test material are compared with those of the controls (undifferentiated NSC) in each group.

5XFAD mouse [2] = test: TUNEL assay, neuroprotective activity (Example 10); type: in vivo; details: orally daily for 28 days, vs vehicle
Description: The sagittal brain tissue slides described in Example 8 were rehydrated and stained with the TUNEL assay kit (Promega, Wis., USA, cat#. G3250). Specifically, the brain tissue slides were permeabilized with 20 μg/ml proteinase K solution for 10 minutes, incubated with equilibration buffer for 10 minutes, and then incubated with TdT solution at 37° C. for 1 hour. The staining of the somatosensory cortex and subiculum area, areas known to show significant cell death in 5XFAD mouse, were observed. TUNEL assay was also performed on the tissue slides of normal adult mouse brain (as control) to confirm that staining was properly done.

5XFAD mouse [3] = test: Cerebellar Purkinje cell Tuj1 and calbindin staining (Example 11); type: in vivo; details: particularly 0.1 mg/kg, orally daily for 28 days, vs vehicle
From the text: Two slides for Tuj1 staining and three for calbindin staining are shown for each treatment group.

Aβ(1-40) and Aβ(1-42) = test: ELISA of Aβ(1-40) and Aβ(1-42) in brain hemispheres (Example 13); type: in vivo, mouse; details: orally daily for 28 days, vs vehicle
Description: Using the ground powder of 5XFAD mouse brain hemispheres obtained in Example 12, the amount of Aβ(1-40) and Aβ(1-42) was quantified by ELISA (enzyme-linked immunosorbent assay). […] After measuring the protein concentration, dilution buffer was added to obtain 30˜50 μg of protein in 100 μl solution. 100 μl each of anti-Aβ(1-40) and Aβ(1-42) antibodies were added to the 96-well plates, incubated at room temperature for 2 hours, then removed and washed 4 times with wash buffer. 100 μl each of HRP-conjugated secondary antibodies was added and incubated at room temperature for 30 minutes. The solution was then removed and washed again 4 times with wash buffer. 100 μl of the […] was added to the wells, incubated in the dark for 30 minutes, and 100 μl of the stop solution added to terminate the reaction. Then, the chemiluminiscence reaction was measured at 450 nm with an ELISA plate reader. The absorbance was converted in reference to the standard concentration and the concentration of each protein was determined. The amount of Aβ(1-40) and Aβ(1-42) in reference to the total amount of protein (30˜50 μg) was calculated, and then the amount of Aβ(1-42) in reference to the amount of Aβ(1-40) was calculated.

5XFAD mouse [4] = test: NeuN immunohistochemical staining, number of neurons in the Alzheimer's disease mouse model (Example 8)
Description: For the BrdU staining to be performed later, 50 mg/kg of BrdU (Sigma, cat#. B5002) was added to the daily dose for the last 5 days. The mouse was then anesthetized and perfused with PBS for the extraction of the brain. […] The other half of the hemispheres plus another 3 extracted mice brains per group were placed in 10% formalin solution at 4° C. for 1 day, which was then followed with the proceeding steps to allow good penetration of paraffin into the brain tissue. The brain tissues were immersed sequentially in 70%, 80%, 95%, 100% alcohol for 1 hour each for dehydration, then immersed in xylene 3 times for 1 hour each for clearing, and embedded in paraffin by placing in liquid paraffin 2 times for 1 hour each. After these procedures, the paraffin-embedded brain tissue (paraffin block) was cut into 5 μm sections, mounted on slides, and stored at room temperature. Prior to immunohistochemical staining, the tissues on the slides were rehydrated by sequentially immersing in xylene, 100%, 90%, 80%, 70%, 50% alcohol,and then water for 5 minutes each. […] The next day, the slides were incubated with anti-rabbit antibodies (Vector lab, cat#. PI-1000) at room temperature for 1 hour and then stained with DAB staining for the analysis of the neuronal distribution in the brain.
FIG. 12b indicates the number of NeuN stained cells counted and represented as the percentage of the number of cells per unit area in the somatosensory cortex layer 5 region. Area samples were taken from 3 areas per mouse, 3 mice per group, so the number of cells counted was from a total of 9 areas.
FIG. 13b indicates the number of NeuN stained cells counted and represented as the percentage of the number of cells per unit area in the motor cortex layer 5 region. Area samples were taken from 6 areas per mouse, 3 mice per group, so the number of cells counted was from a total of 18 areas.
FIG. 14b indicates the number of NeuN stained cells counted and represented as the percentage of the number of cells per unit area in the dotted area of the hippocampal subiculum shown in FIG. 14a. Area samples were taken from 3 areas per mouse, 3 mice per group, so the number of cells counted was from a total of 9 areas.

[5] = 10 nM, 25 nM, 100 nM for 2 days
[6] = 0.1 mg/kg and 1.0 mg/kg orally daily for 28 days, vs vehicle

`CC(=O)Nc1cccc(-n2c(=O)n(C3CC3)c(=O)c3c(Nc4ccc(I)cc4F)n(C)c(=O)c(C)c32)c1` [trametinib, N-(3-{3-cyclopropyl-5-[(2-fluoro-4-iodophenyl)amino]-6,8-dimethyl-2,4,7-trioxo-3,4,6,7-tetrahydropyrido[4,3-d]pyrimidin-1(2H)-yl}phenyl)acetamide] was tested, and the “differentiation-inducing effect (Tuj1, TH mRNA)” value [1] was “exerted its differentiation-inducing effect”, the “mRNA expression of GABAergic neuron marker Gad1” value [1, 5] was “increased with the increase in concentration of the trametinib added” and the “mRNA expression of cholinergic neuron marker ChAT” value [1, 5] was “increased with the increase in concentration of the trametinib added”. For the same compound, the “mRNA expression of dopaminergic neuron marker TH” value [1, 5] was “increased with the increase in concentration of the trametinib added”, the “mRNA expression of motor neuron marker Isl1” value [1, 5] was “increased with the increase in concentration of the trametinib added” and the “number of TUNEL stained cells in the somatosensory cortex and subiculum” value (5XFAD mouse [2]) was “significantly lower”. The “Purkinje cell axon structure” value (5XFAD mouse [3]) was “increased axon arborization or at least with preserved axon structure”, the “amount of Aβ(1-42)/Aβ(1-40)” value (Aβ(1-40) and Aβ(1-42)) was “decreased” and the “number of NeuN stained neurons, hippocampal subiculum” value (5XFAD mouse [4]; [6]) was “significant increase in the number of neurons”. The “number of NeuN stained neurons, motor cortex layer 5” value (5XFAD mouse [4]; [6]) was “significant increase in the number of neurons”, the “number of NeuN stained neurons, somatosensory cortex layer 5” value (5XFAD mouse [4]; [6]) was “significant increase in the number of neurons stained with NeuN” and the “dose showing neural stem cell differentiation-inducing activity” value (5XFAD mouse [4]; 5xFAD mouse experiments) was 0.1 mg/kg/day.
